In patent US8729122B2, “Pharmaceutical and nutraceutical compositions of abscisic acid” (Valent BioSciences Corporation, priority 2010, dated 2014):

Tests used:
[1] = tested on: rats; test: Rat neurotoxicity testing; type: in vivo; conditions: especially female
[2] = tested on: rats; test: 90-Day Oral Toxicity Study in Rodents (dietary S-ABA); type: in vivo; conditions: for PROSTATE WEIGHT, mean: 90 days
Experimental: Tests were conducted with (S)-(+)-abscisic acid in accordance with standard guidelines and procedures as evidenced by EPA Subchronic Toxicity Test Guidelines: 870.3050—Repeated Dose 28-Day Oral Toxicity Study in Rodents (July 2000); 870.3100—90-Day Oral Toxicity in Rodents (August 1998); 870.3650—Combined Repeated Dose Toxicity Study with the Reproduction/Developmental Toxicity Screening Test (July 2000); and 870.3200—21/28-Day Dermal Toxicity (August 1998), as well as Organization for Economic Co-operation and Development (OECD) Guidelines for the Testing of Chemicals including: Test No. 407: Repeated Dose 28-day Oral Toxicity Study in Rodents; Test No. 408: Repeated Dose 90-Day Oral Toxicity Study in Rodents; Test No. 416: Two-Generation Reproduction Toxicity; and Test No. 410: Repeated Dose Dermal Toxicity: 21/28-day Study.
90-Day Oral Toxicity Study in Rodents
From the batch supplied (42 males and 42 females), 40 males and 40 females were assigned to the study. Animals were allocated to 4 dose groups and treated as follows:
The animals were dosed by the dietary route 7 days/week for 13 consecutive weeks and up to immediately before terminal kill. Control animals received blank diet only. The concentration was constant throughout the treatment period. Detailed examinations were conducted on all animals during Weeks 4, 8 and 12. Histopathological evaluation of all tissues was undertaken for all animals in the Control and dose groups. Observations and testing results from this study can be seen in Tables 2, 4 and 5 below.
In a 90 day toxicity study in rats, glucose and triglyceride levels were measured.

## CC1=CC(=O)CC(C)(C)[C@@]1(O)/C=C/C(C)=C\C(=O)O [S-ABA, (S)-(+)-abscisic acid]
[1]
  alertness: heighten alertness
[2]; group 2, 2,000 ppm in diet
  PROSTATE WEIGHT, mean: MEAN = 0.731 GRAMS
[2]; group 3, 6,000 ppm in diet
  PROSTATE WEIGHT, mean: MEAN = 0.908 GRAMS
[2]; group 4, 20,000 ppm in diet
  PROSTATE WEIGHT, mean: MEAN = 0.827 GRAMS
[2]; male and female rats, 2,000 ppm to 20,000 ppm
  effect on triglyceride levels: dose dependent decrease in triglyceride levels
